Assay results taken from US20160128988A1, “COMBINATIONS FOR THE TREATMENT OF CANCER COMPRISING A MPS-1 KINASE INHIBITOR AND A MITOTIC INHIBITOR” (BAYER PHARMA AKTIENGESELLSCHAFT, priority 2013, published 2016).

What was measured:
[1] = test system: cisplatin-resistant ovarian cancer cells A2780cis; experiment: Mode of action: histopathology of A2780cis tumors after treatment; details: Compound A1 single agent 2.5 mg/kg PO 2QD 2 days on/5 days off, samples 24 hours after first administration
Experimental: To explain in vivo the mode of action of an Mps-1 kinase inhibitor in single-agent treatment and combination treatment with a taxane, female NMRI (Naval Medical Research Institute) nude mice were implanted with cisplatin-resistant ovarian cancer cells A2780cis.
Paclitaxel was administered IV (intravenous(ly)) QW (once per week (meaning the 1 day on/6 days off treatment schedule)) at its MTD (24 mg/kg) in single-agent and combination treatments. […] Tumors were embedded in paraffin, sections were prepared and stained with hematoxylin & eosin for histopathological analysis.

[2] = test system: NCI-H1299 human NSCLC xenograft tumors
Source text: The effect of combination treatment of an Mps-1 kinase inhibitor (Compound A1) with docetaxel, another SAC activating, […], anti-mitotic agent, used as standard of care in NSCLC patients, was studied in the NCI-H1299 taxane intrinsically resistant human lung carcinoma (NSCLC) xenograft model in nude mice.
Docetaxel was applied intravenously once per week upon its respective MTD. Substances were formulated in optimal vehicles to achieve solutions. Animal body weight and tumor size were determined two times weekly. […] For combination treatment Compound A1and docetaxel were applied at the same day within a time frame of 4 hours. Animals of control and Mps-1 kinase inhibitor monotherapy group were treated for a duration of 20 days. Animals of docetaxel monotherapy and docetaxel/Mps-1 kinase inhibitor combination treatment groups were treated for a duration of 42 days. At the end of the study after one final treatment plasma and tumors were sampled for PK analysis and final tumor weight was determined.
NCI-H1299 human NSCLC tumor cells were implanted s.c. into nude mice on day 0. […] Compound A1 was administered orally (p.o.) upon 2.0 mg/kg twice daily (2QD) for 2 days on/5 days off (2 on/5 off) in monotherapy and in combination with docetaxel. Docetaxel was administered intravenously (i.v.) upon 15 mg/kg once daily (QD) once per week (1 on/6 off) in monotherapy and combination therapy. Tumor growth was monitored by determination of the tumor area using calliper measurement two to three times weekly. FIG. 2A: Time course of tumor growth. FIG. 2B: Weight of tumors in docetaxel/Mps-1 kinase inhibitor combination group at the end of the study at day 52 after tumor cell inoculation. FIG. 2C: Time course of animal body weight change during the course of the study.

[3] = test system: MKN1 human gastric carcinoma model; experiment: Combination with paclitaxel in MKN1 human gastric carcinoma model; details: Compound A1 single agent 1 mg/kg or 2.5 mg/kg (40 days); paclitaxel and combination (78 treatment days)
Experimental: Compound A1 was administered PO in the 2QD intermittent (2 days on/5 days off) dosing schedule up to the respective MTD in single-agent treatment and at a dose of 40% of the single-agent MTD in combination. Paclitaxel was administered IV QW at its respective MTD. Treatment for all groups started at a tumor size of 27 mm^2, on day 7 after tumor cell inoculation. For combination treatment, Compound A1 and paclitaxel were administered on the same day within a time of 4 hours. Animals of the control and Compound A1 single-agent treatment groups were treated for 40 days. Animals of the paclitaxel single-agent and Compound A1 with paclitaxel combination treatment groups were treated for 78 days.

[4] = Maximum tolerated dose (MTD); type: in vivo, nude mice; details: nude, mouse, in vivo; Compound A1 PO 2QD 2 days on/5 days off; paclitaxel IV QW; docetaxel i.v. 1 day on/6 days off; read-out: MTD (maximum tolerated dose), single-agent
A2780cis xenograft model = test system: A2780cis xenograft model
Experimental: The effect of the combination treatment of Compound A1 with paclitaxel was studied in a human ovarian carcinoma model in nude mice, namely in the adaptive cisplatin-resistant and paclitaxel intrinsically-resistant A2780cis xenograft model. […] Paclitaxel was administered IV QW at its respective MTD.

[5] = test system: primary human NSCLC xenograft model LU387; experiment: Combination with paclitaxel in primary human NSCLC xenograft model LU387; type: in vivo, nude mice; details: for mean tumor size: day 42 post treatment
Experimental: The effect of Compound A1 and paclitaxel compared with a vehicle was evaluated in the subcutaneous primary human NSCLC xenograft model LU387 on nude mice.

[6] = test system: IGR-OV1 human ovarian carcinoma model
Experimental: Paclitaxel was administered IV QW at 50% of its respective MTD.

[7] = test system: MDA-MB 231 human triple-negative breast cancer xenograft tumors
Experimental: The effect of combination treatment of an Mps-1 kinase inhibitor (Compound A1) and paclitaxel was studied in the MDA-MB 231 human triple-negative (no expression of Her2/neu, progesterone receptor, estrogen receptor) xenograft model in nude mice.
Paclitaxel was applied intravenously once per week upon its respective MTD. Substances were formulated in optimal vehicles to achieve solutions. Animal body weight and tumor size were determined three times weekly. […] For combination treatment, Compound A1 and paclitaxel were applied at the same day within a time frame of 4 hours. Animals of control and monotherapy group (Compound A1 only) were treated for a duration of 28 days. Animals of paclitaxel monotherapy and paclitaxel/Mps-1 kinase inhibitor treatment groups were treated for a duration of 50 days. At the end of the study after one final treatment plasma and tumors were sampled for PK analysis and final tumor weight was determined.
MDA-MB 231 human breast cancer cells were implanted s.c. into nude mice on day 0. […] Compound A1 was administered orally (p.o.) upon 1 mg/kg twice daily (2QD) for 2 days on/5 days off (2 on/5 off) in monotherapy and in combination with paclitaxel. Paclitaxel was administered intravenously (i.v.) upon 20 mg/kg once daily (QD) once per week (1 on/6 off) in monotherapy and combination therapy. Tumor growth was monitored by determination of the tumor area using calliper measurement three times weekly. FIG. 3A: Time course of tumor growth. FIG. 3B: Weight of tumors in paclitaxel/Mps-1 kinase inhibitor combination group at the end of the study at day 73 after tumor cell inoculation. FIG. 3C: Time course of animal body weight change during the course of the study.

[8] = Compound A1 2 mg/kg 2QD 2on/5off p.o., docetaxel 15 mg/kg QD 1on/6off i.v.

COc1cc(S(C)(=O)=O)ccc1Nc1nc2ccc(-c3ccc(NC(=O)[C@H](C)c4ccc(F)cc4)cc3)cn2n1 [Compound A1]
histopathological phenotype of tumor tissue [1]: induction of a pleomorphic phenotype, including multinuclearity | Fatal Tox [2, 8]: 0/8 | Max. Body weight loss (%) [2, 8]: −3% | anti-tumor efficacy (in words) ([2]; Compound A1 2 mg/kg 2QD p.o. (20 treatment days), combination with docetaxel 15 mg/kg i.v. (42 treatment days)): weak efficacy | T/C weight ([2]; mean final tumor weight, Compound A1 2 mg/kg 2QD 2on/5off p.o.): 1.01 | T/C area ([2]; relative mean tumor area, 20 treatment days, Compound A1 2 mg/kg 2QD 2on/5off p.o., docetaxel 15 mg/kg QD 1on/6off i.v.): 0.89 | anti-tumor efficacy (in words) [3]: no effect on tumor growth inhibition | MTD [4]: 2.5 mg/kg | T/Cweight (A2780cis xenograft model; 14 treatment days, Compound A1 1 mg/kg PO 2QD 2 days on/5 days off): 0.87 | relative T/Carea (A2780cis xenograft model; 14 treatment days, Compound A1 1 mg/kg PO 2QD 2 days on/5 days off, paclitaxel 24 mg/kg IV QW): 0.89 | anti-tumor efficacy (in words) (A2780cis xenograft model; Compound A1 1 mg/kg (14 days), combination with paclitaxel 24 mg/kg (36 treatment days)): weak single-agent efficacy | tolerability (in words) (A2780cis xenograft model; mouse, in vivo): well tolerated without critical body weight loss or toxicities | antitumor activity (in words) ([5]; Compound A1 single agent 1 mg/kg and 2.5 mg/kg, combination with paclitaxel): no significant antitumor activity | T/Cvolume ([5]; day 42, Compound A1 2.5 mg/kg (high dose)): 0.73 | mean tumor size ([5]; Compound A1 1 mg/kg PO 2QD 2 days on/5 days off over 6 weeks): 1788 mm^3 | mean tumor size ([5]; Compound A1 2.5 mg/kg PO 2QD 2 days on/5 days off over 6 weeks): 1137 mm^3 | T/Cweight ([6]; 38 treatment days, Compound A1 2.5 mg/kg PO 2QD 2 days on/5 days off): 0.52 | relative T/Carea ([6]; 38 treatment days, Compound A1 single agent 2.5 mg/kg PO 2QD, paclitaxel 12 mg/kg IV QW, combination with Compound A1 2 mg/kg PO 2QD): 0.57 | anti-tumor efficacy (in words) ([6]; Compound A1 2.5 mg/kg single agent (38 days), paclitaxel 12 mg/kg and combination with Compound A1 2 mg/kg (treatment day 38 to 59)): moderate single-agent efficacy | tolerability (in words) ([6]; mouse, in vivo): well tolerated without critical body weight loss or toxicities | Fatal Tox ([7]; Compound A1 1 mg/kg 2QD 2on/5off p.o., paclitaxel 20 mg/kg QD 1on/6off i.v.): 0/10 | anti-tumor efficacy (in words) ([7]; Compound A1 1 mg/kg 2QD p.o. (28 treatment days), combination with paclitaxel 20 mg/kg i.v. (50 treatment days)): no effect on tumor growth | tolerability (in words) ([7]; Compound A1 1 mg/kg 2QD p.o., paclitaxel 20 mg/kg i.v.): well tolerated without critical body weight loss or toxicities | T/C weight ([7]; mean final tumor weight, Compound A1 1 mg/kg 2QD 2on/5off p.o.): 0.92 | T/C area ([7]; relative mean tumor area, 28 treatment days, Compound A1 1 mg/kg 2QD 2on/5off p.o., paclitaxel 20 mg/kg QD 1on/6off i.v.): 0.91
